The subject of data set [1] is 3T3 fibroblasts. Kind of data set: Viability assay of hepatocyte / 3T3 fibroblast co-culture after drug exposure, populations separated on micromechanical substrates. In kind it is cell-based, murine. From the text: FIG. 13 depicts population-specific readout or selective interrogation. Hepatocytes and 3T3 fibroblasts are co-cultured to maintain hepatocyte differentiation. In (A) the drug Pyrilamine is introduced while the cells are in co-culture. By using the micromechanical substrates, the two cell populations are separated prior to viability assay, allowing the viability of each cell type to be assessed independently. […] In (B) the effect of the drug Methapyrilamine is compared when the cells are in co-culture or when the 3T3 are alone.
In another embodiment, in addition to the selective stimulation described above, one can separate a subpopulation of cells from a culture in order to assay those cells specifically; this is known as selective interrogation. One example of selective interrogation is shown in FIG. 11, where SEC cells are separated out from a culture of many cell types, and a Western Blot is performed on the purified SEC population. Another example is in FIG. 15, where hepatocytes and 3T3 fibroblasts are separated before viability assays are performed on each population.

For data set [2], the system named is liver sinusoidal endothelial cells (LSEC). Kind of data set: SE-1 expression of cultured LSEC (immunohistochemistry and Western blotting). In kind it is cell-based. The conditions noted are these: primary rat LSEC cultured in the presence of OV, day 3. As to the method:
For example, immunohistochemistry and Western blotting were used to characterize expression of the specific EC markers RECA, SE-1, PECAM and AcLDL in isolated primary rat LSECs were cultured under the following conditions: a) on the different ECM proteins including, Collagen-I, Fibronectin, Laminin, and Collagen-IV; b) with various combinations of supportive cells, using the micromechanical reconfigurable culture method described herein to enable tracking of individual cell types, separation into pure populations for analysis, and deconvolution of contact-mediated versus soluble signals; and c) in the presence of the tyrosine phosphatase inhibitor, orthovanadate (OV).
In addition, the co-culture of LSEC with hepatocytes or fibroblast-stabilized hepatocytes induced LSEC proliferation as well as the activation of the transcription factor STAT-1.

In data set [3] the test system is LSEC. Particulars: previously demonstrated (Fujimoto, H. et al. 2006); cited from earlier work.

`CN(C)CCN(Cc1cccs1)c1ccccn1` [Methapyrilamine]: in data set [1] (3T3 in co-culture with hepatocytes or alone, FIG. 13B), the “sensitivity of 3T3 to the toxic effects, co-culture versus 3T3 alone” value is “more sensitive to the toxic effects of the drug when alone”. For `[O]=[V]([O-])([O-])[O-]` [OV, orthovanadate], the SE-1 expression result in data set [2] is reported as “strongly maintaining”. Also, the LSEC apoptosis entry in data set [3] was “inhibited LSEC apoptosis”. Consider `COc1ccc(CN(CCN(C)C)c2ccccn2)cc1` [Pyrilamine], for which, in data set [1] (drug introduced while hepatocytes and 3T3 are in co-culture, populations separated prior to viability assay, FIG. 13A), the “sensitivity to the toxic effects (viability), 3T3 versus hepatocytes” value was 3T3 are shown to be more sensitive.

Values taken from US9611453B2, “Micromechanical devices for control of cell-cell interaction, and methods of use thereof” (The Regents of the University of California, priority 2007, dated 2017).
